Measurements from patent US7776878B2, “Heterocyclic benzylamino derivatives, their manufacture and use as pharmaceutical agents” (Hoffmann-La Roche Inc., priority 2005, dated 2010).

How the values were obtained:
[1] = biological target: T1, Upstate Src (p60^c-src, partially purified) (Homo sapiens, UniProt P12931); assay: SRC-Inhibitor-Assay (time-resolved fluorescence), Src; assay type: biochemical; conditions: ATP 5 μM, peptide 10 μM, enzyme 2.5 U/mL, 15 min pre-incubation at 15° C.
T1 construct: purchased UBI, Upstate Biotech, Inc
T1 sequence (P12931 whole entry): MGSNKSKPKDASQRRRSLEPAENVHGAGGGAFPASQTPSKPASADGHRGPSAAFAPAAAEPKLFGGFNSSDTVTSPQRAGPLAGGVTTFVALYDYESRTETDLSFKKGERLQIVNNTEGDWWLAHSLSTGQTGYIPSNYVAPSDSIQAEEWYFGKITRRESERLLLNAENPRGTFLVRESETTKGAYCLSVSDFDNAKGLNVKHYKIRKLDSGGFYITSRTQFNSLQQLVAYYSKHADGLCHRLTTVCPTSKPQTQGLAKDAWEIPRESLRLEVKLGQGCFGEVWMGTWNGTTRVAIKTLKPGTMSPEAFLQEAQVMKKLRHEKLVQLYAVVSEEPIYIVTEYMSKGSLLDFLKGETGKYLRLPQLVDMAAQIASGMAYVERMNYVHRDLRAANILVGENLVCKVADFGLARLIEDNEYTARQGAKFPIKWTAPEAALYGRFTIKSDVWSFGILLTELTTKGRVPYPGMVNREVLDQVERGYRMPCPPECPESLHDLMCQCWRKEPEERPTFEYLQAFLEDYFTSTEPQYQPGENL
Excerpt: (§1) The activity of the compounds according to this invention as inhibitors for the src-family tyrosine kinases was shown by using the following assay.
(§2) SRC-Inhibitor-Assay Parameters:
(§3) Eu-labelled phosphotyrosine antibody:—for Lck Cisbio Mab PT66-K, • for Src EG&G Wallac PT66 Eu-W1024 (all commercially available).
(§4) Peptides: Ro: NH2-A-E-E-E-I-Y-G-E-F-E-A-K-K-K-K-CONH2, and • Ja133-Ro: Ja133-G-Aminocaprylic acid-A-E-E-E-I-Y-G-E-F-E-A-K-K-K-K-CONH2, wherein Ja133 is LightCycler-Red 640-N-hydroxy succinimide ester; • whereby both peptides were synthesized by an optimized solid phase peptide synthesis protocol (Merrifield, Fed. Proc. Fed. Amer. Soc. Exp. Biol. 21 (1962) 412) on a Zinsser SMP350 peptide synthesizer. Shortly, the peptide was assembled on 160 mg (22.8 μmol scale) of a Rink-Linker modified polystyrene solid phase by repeatedly conjugating an twenty fold excess of amino acids each protected by temporary piperidine labile Fmoc- and permanent acid labile tert-Bu-, BOC- and O-tert-Bu-groups depending on the side chain function. The substrate sequence AEEEIYGEFEAKKKK was N-terminal additionally mounted with the spacer amino acids Aminocaprylic acid and Glycin. After cleavage of the N-terminal temporary protecting group the still attached and protected peptide was labeled with a 1.5 fold amount of LightCycler-Red 640-N-hydroxy succinimide ester (purchased from Roche Diagnostics GmbH) and triethylamine. After 3 hrs. the resin was washed with Dimethylformamide and Isopropanol until the eluates of the blue resin got colourless. […] The substrate was finally isolated by a preparative reverse phase HPLC purification. The purification yielded 12.2 mg RP-HPLC single peak pure blue material (lyophilisate). The identity was proven by MALDI mass spectroscopy [2720.0].
(§5) Enzymes: Upstate Lck (p56^lck, active), Upstate Src (p60^c-src, partially purified) were purchased from UBI, Upstate Biotech, Inc.
(§6) Time-resolved Fluorescence Assay: Reader: Perkin Elmer, Wallac Viktor 1420-040 multilabel counter; Liquid handling system: Beckman Coulter, Biomek 2000.
(§7) ATP, Tween™ 20, 4-(2-hydroxyethyl)-l-piperazineethanesulfonic acid (HEPES) were purchased from Roche Molecular Biochemicals, MgCl2 and MnCl2 were purchased from Merck Eurolab, Tris(2-carboxyethyl)phosphine hydrochloride (TCEP) was purchased from Pierce, 384 Well low volume fluorescence plates was purchased from Falcon.
(§8) At first the enzyme is pre-incubated for 15 min. at 15° C. in aqueous solution with corresponding amounts of inhibitors according to this invention. Then the phosphorylation reaction is started by adding a reaction mixture, containing ATP, Peptide and PT66, and subsequent shaking. The proceeding of this reaction is immediately monitored using time resolved fluorescence spectroscopy in a suitable well plate reader.
(§9) The IC50-values can be obtained from the reaction rates by using a non-linear curve fit (XLfit software (ID Business Solution Ltd., Guilford, Surrey, UK))

[2] = biological target: T2, Upstate Lck (p56^lck, active) (Homo sapiens, UniProt P06239); assay: SRC-Inhibitor-Assay (time-resolved fluorescence), Lck; assay type: biochemical; conditions: ATP 5 μM, peptide 10 μM, enzyme 2.5 U/mL, 15 min pre-incubation at 15° C.
T2 construct: purchased UBI, Upstate Biotech, Inc
T2 sequence (P06239 whole entry): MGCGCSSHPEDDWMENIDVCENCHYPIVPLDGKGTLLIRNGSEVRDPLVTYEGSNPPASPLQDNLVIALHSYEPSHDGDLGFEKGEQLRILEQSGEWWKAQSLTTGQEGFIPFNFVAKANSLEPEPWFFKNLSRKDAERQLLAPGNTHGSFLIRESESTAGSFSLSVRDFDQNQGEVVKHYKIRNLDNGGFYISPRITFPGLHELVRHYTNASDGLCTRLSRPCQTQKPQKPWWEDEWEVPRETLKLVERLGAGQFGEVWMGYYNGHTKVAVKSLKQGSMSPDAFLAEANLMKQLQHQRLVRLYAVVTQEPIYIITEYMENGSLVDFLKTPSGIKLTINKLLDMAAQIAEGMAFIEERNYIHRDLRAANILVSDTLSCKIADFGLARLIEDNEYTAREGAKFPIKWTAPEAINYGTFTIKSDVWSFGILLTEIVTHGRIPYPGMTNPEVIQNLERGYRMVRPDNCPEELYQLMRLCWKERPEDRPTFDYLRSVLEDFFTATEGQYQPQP
Excerpt: as §1, §2, §3, §4, §5, §6, §7, §8, §9

SMILES	IC50 [1]	IC50 [2]
CC(Nc1cnc2[nH]c(-c3ccccc3)nc2c1)c1ccccc1 (stereo not drawn) [Example 1-1, (1-Phenyl-ethyl)-(2-phenyl-3H-imidazo[4,5-b]pyridin-6-yl)-amine]	500 to 1500 nM	1000 to 5000 nM
COCCOc1cccc(-c2cc3cc(NCc4ccccc4)cnc3[nH]2)c1 [Example 2-1, Benzyl-{2-[3-(2-methoxy-ethoxy)-phenyl]-1H-pyrrolo[2,3-b]pyridin-5-yl}-amine]	500 to 1500 nM	100 to 1000 nM
COCCOc1cccc(-c2cc3cc(NCc4ccccc4C)cnc3[nH]2)c1 [Example 2-2, {2-[3-(2-Methoxy-ethoxy)-phenyl]-1H-pyrrolo[2,3-b]pyridin-5-yl}-(2-methyl-benzyl)-amine]	131 nM	757 nM
c1ccc(CNc2cnc3[nH]c(-c4ccccc4)cc3c2)cc1 [Example 2-3, Benzyl-(2-phenyl-1H-pyrrolo[2,3-b]pyridin-5-yl)-amine]	10 to 500 nM	1000 to 5000 nM
Cc1ccccc1CNc1cnc2[nH]c(-c3ccccc3)cc2c1 [Example 2-4, (2-Methyl-benzyl)-(2-phenyl-1H-pyrrolo[2,3-b]pyridin-5-yl)-amine]	10 to 500 nM	100 to 1000 nM
CC(=O)Nc1cccc(-c2cc3cc(NCc4ccccc4)cnc3[nH]2)c1 [Example 2-5, N-[3-(5-Benzylamino-1H-pyrrolo[2,3-b]pyridin-2-yl)-phenyl]-acetamide]	10 to 500 nM	100 to 1000 nM
CC(=O)Nc1cccc(-c2cc3cc(NCc4ccccc4C)cnc3[nH]2)c1 [Example 2-6, N-{3-[5-(2-Methyl-benzylamino)-1H-pyrrolo[2,3-b]pyridin-2-yl]-phenyl}-acetamide]	31 nM	223 nM
CC(=O)Nc1ccc(-c2cc3cc(NCc4ccccc4)cnc3[nH]2)cc1 [Example 2-7, N-[4-(5-Benzylamino-1H-pyrrolo[2,3-b]pyridin-2-yl)-phenyl]-acetamide]	10 to 500 nM	100 to 1000 nM
CC(=O)Nc1ccc(-c2cc3cc(NCc4ccccc4C)cnc3[nH]2)cc1 [Example 2-8, N-{4-[5-(2-Methyl-benzylamino)-1H-pyrrolo[2,3-b]pyridin-2-yl]-phenyl}-acetamide]	10 to 500 nM	100 to 1000 nM
